The subject of test [1] is Human Dermal Fibroblasts (HDF). As to the kind of experiment: Cell proliferation assay (BrDu), HDF. It counts as cell-based. As to conditions: HDF cells; 5, 0.5 or 0.05 μg/ml, 24 h; compared with untreated control; FIG. 1. Here is the method:
BrDu is incorporated into newly synthesised DNA strands of actively proliferating cells. Following partial denaturation of double stranded DNA, BrDu is detected immunochemically allowing the assessment of the population of cells which are synthesizing DNA.
Human Dermal Fibroblasts (HDF—Sigma 10605a) were seeded in a 96 well plate at 10,000 cells per well in DMEM containing 10% fetal calf serum (FCS), 1% Pen/strep, 1% L-glutamine and allowed to adhere for 24 h.
Following the initial 24 h incubation the cells were incubated with 5 μg/ml, 0.5 μg/ml or 0.05 μg/ml synthetic peptide for 24 h respectively.
After 18 h incubation with synthetic peptides 20 μl BrDu reagent was added to each well. At 24 h incubation the cells were fixed and the amount of […] was measured using the BrdU Cell Proliferation Assay, all steps were carried out according to the manufacturer's instructions.

The test system of test [2] is Human Dermal Fibroblasts (HDF). The test can be described thus: Elastin production assay (ELISA). The format is cell-based. As to conditions: 5, 1 or 0.1 μg/ml, 96 h, compared with untreated control, FIG. 4. Here is the method: Elastin is a highly elastic protein in connective tissue and allows many tissues in the body to resume their shape after stretching or contracting. […] Human Elastin ELISA kit assay is designed to measure Elastin in tissue or protein/peptide compositions.
Human Dermal Fibroblasts (HDF) were seeded in 24 well plates at 50,000 cells per well in DMEM containing 10% fetal calf serum (FCS), 1% Pen/strep, 1% L-glutamine and allowed to adhere for 24 h.
(§1) Following the initial 24 h incubation the cells were incubated with 5 μg/ml, 1 μg/ml or 0.1 μg/ml synthetic peptide for 96 h respectively.
After treatment, the cells were lysed using cell lysis buffer and sonicated for 10 seconds. The lysed cells were centrifuged and the supernatant was removed from each sample. Total protein concentration was determined using a BCA assay. Each sample was diluted in assay buffer to contain 10 μg total protein. 50 μl of each sample was then assayed using the […] Human Elastin ELISA kit. All steps were carried out according to the manufacturer's instructions.
On the technique in general: In an ELISA, binding on a coated surface is turned into a signal by an enzyme label.

A further test deals with Human skeletal myoblasts. As to the kind of experiment: Glucose uptake (2-DG), skeletal myoblasts. It counts as cell-based. As to conditions: 3 h, compared with untreated control. The procedure: (§2) Glucose uptake in skeletal muscle cells was measured using 2-deoxyglucose (2-DG). 2-DG is taken up by glucose transporters and metabolized to 2-DG-6-phosphate (2-DG6P). The amount of accumulated non-metabolized 2-DG6P is proportional to glucose uptake by cells.
Human skeletal myoblasts (Sigma 150-05a) were seeded in a 96 well plate at 10,000 cells per well in Skeletal Muscle Differentiation medium and allowed to differentiated for 72 h prior to experimentation.
The differentiated cells were serum starved for 24 h prior to stimulation with insulin or synthetic peptides. After starvation, the serum free media was removed, cells rinsed with Phosphate Buffered Saline (PBS) and media replaced with 100 μl of Krebs-Ringer-Phosphate-HEPES (KRPH) and incubated for 1 h.
The cells were then stimulated with 100 nM insulin for 30 minutes or 5 μg/ml, 0.5 μg/ml or 0.05 μg/ml synthetic peptide for 3 h respectively.
(§3) Following stimulation, the cells were incubated with 10 μl/well of 2-DG solution for 40 min and glucose uptake was measured using the ‘PrismColor Glucose Uptake Assay Kit’ (Molecutools), all steps were carried out according to the manufacturer's instructions. The experiment was repeated using HACAT cells.

A further test deals with KK.Cg-Ay/J (KKAY mouse). As to the kind of experiment: Blood glucose management in a mouse model of obesity and diabetes. The format is in vivo. As to conditions: KKAY mice; 100 μM/kg subcutaneous injection; after 7 days of treatment. Here is the method:
(§4) • Species—KK.Cg-Ay/J (KKAY mouse) • Source—Jackson Laboratories • Age—12 weeks of age • Gender—Male • Randomization—Based on baseline fasting glucose Housing and Feeding: • Acclimation—Not less than five days • Housing • Mice will be housed on a 12 hr light/dark cycle • No more than 4 mice per cage depending on size • Ventilated cage rack system • Diet—Standard rodent chow and water ad libitum Design: • Route of administration:—Subcutaneous injection • Dose Volume(s)—10 mL/kg • Dose Levels—Test articles: 100 μM/kg, Metformin: 250 mg/kg • Number per group—10 • Total number of animals—30

Test [3] relates to Human Dermal Fibroblasts (HDF). As to the kind of experiment: Collagen production assay (hydroxyproline ELISA). As to conditions: 5, 1 or 0.1 μg/ml, 96 h, compared with untreated control, FIG. 3. It counts as cell-based. Here is the method:
Study Description Hydroxyproline in tissue preparations is a direct measure of the amount of collagen present. […] Human Hydroxyproline ELISA kit assay is designed to measure hydroxyproline in tissue or peptide compositions.
Human Dermal Fibroblasts (HDF Sigma 10605a) were seeded in 24 well plates at 50,000 cells per well in DMEM containing 10% fetal calf serum (FCS), 1% Pen/strep, 1% L-glutamine and allowed to adhere for 24 h.
as §1
After treatment, the cell supernatant was removed and centrifuged. 50 μl of each supernatant was assayed using the […] Human Hydroxyproline ELISA kit. All steps were carried out according to the manufacturer's instructions.

Another test concerns HACAT cells. The test can be described thus: Glucose uptake (2-DG), HACAT. The format is cell-based. As to conditions: compared with untreated control, FIG. 5. Here is the method:
as §2, §3

Another test can be described thus: Body weight of KKAY mice. It counts as in vivo, mouse. The conditions noted are these: 100 μM/kg subcutaneous injection, 13 days of treatment. Here is the method:
as §4

In the case of WKDEAGKPLVK [SEQ ID NO. 1], the cell proliferation result in test [1] is “increase”. Moreover, in test [2], the elastin production result was “increase”. Moreover, the glucose uptake entry in the test with Human skeletal myoblasts (0.5 μg/ml, FIG. 6) was “increase”; in the test with Human skeletal myoblasts (5 μg/ml, FIG. 7) it was “increase”; in the test on HACAT cells, “increase”. In addition, in the test with KK.Cg-Ay/J (KKAY mouse), the blood glucose result is “significantly reduced”. For the same sequence, the collagen production result in test [3] is listed as “increase”. The “body weight relative to the untreated group” value in “Body weight of KKAY mice” is given as “reduced body weight”. Further, the “increase in body weight” value in the test “Body weight of KKAY mice” is listed as “did not cause an increase”.
